Data set [1] in a line: Solubility test in 0.1% phosphate buffer solution (pH 7.0). In kind it is physicochemical. The conditions noted are these: aqueous buffer, thermodynamic from solid; 0.1% phosphate buffer solution (pH 7.0), room temperature overnight. The method, then: The mixture was subjected to ultrasonic irradiation for 30 seconds, and then shaken at room temperature overnight. The resulting suspension was left at rest at room temperature for 30 minutes, then filtered through a chromatography disc (0.20 μm) to prepare a sample solution. The sample solution and the standard solution were analyzed by LC-MS (product name: ACQUITY UPLC H-CLASS SYSTEM and Xevo TQ-S, produced by Nihon Waters K.K.), and a solubility was calculated from the obtained peak area value by an external standard method.

For data set [2], the system named is Human Retinal Microvascular Endothelial (hRMVE) Cells (hRMVEC). Kind of data set: Growth inhibition of hRMVE cells under VEGF stimulation (MTT assay). In kind it is cell-based. The conditions noted are these: recombinant human VEGF, 48 hours, read-out: Cell Growth Inhibition Activity.

Values after ≈ are worked out from the molar mass of the structure shown.

As for `CNC(=O)c1ccccc1Sc1ccc2c(C#Cc3ccc(NC(=O)NCCOCCOCCN4CCOCC4)cc3)n[nH]c2c1` [Compound 46, N-methyl-2-[(3-{[4-(3-{2-[2-(2-morpholinoethoxy)ethoxy]ethyl}ureido)phenyl]ethynyl}-1H-indazol-6-yl)thio]benzamide], in data set [1], the solubility stood at 1.4 µg/mL (≈ 2.18 µM). The IC50 in data set [2] amounted to 3.2 nM.
With `CNC(=O)c1ccccc1Sc1ccc2c(C#Cc3ccc(NC(=O)COCCOCCOCCOC)nc3)n[nH]c2c1` [Compound 38, N-{5-[(6-{[2-(methylcarbamoyl)phenyl]thio}-1H-indazol-3-yl)ethynyl]pyridine-2-yl}-2,5,8,11-tetraoxatridecane-13-amide], the IC50 in data set [2] came to 3.5 nM.
In turn, `CNC(=O)c1ccccc1Sc1ccc2c(C#Cc3ccc(NC(=O)NCCOCCOCCOCCOCCOC)nc3)n[nH]c2c1` [Compound 34, 2-{[3-({6-[3-(2,5,8,11,14-pentaoxahexadecane-16-yl)ureido]pyridine-3-yl}ethynyl)-1H-indazol-6-yl]thio}-N-methylbenzamide] came in with a solubility in data set [1] of 2.6 µg/mL (≈ 3.84 µM).
`CNC(=O)c1ccccc1Sc1ccc2c(C#Cc3ccc(NC(=O)NCCOCCOCCO)cc3)n[nH]c2c1` [Compound 42, 2-[(3-{[4-(3-{2-[2-(2-hydroxyethoxy)ethoxy]ethyl}ureido)phenyl]ethynyl}-1H-indazol-6-yl)thio]-N-methylbenzamide] showed a solubility in data set [1] of 3.1 µg/mL (≈ 5.4 µM). Also, in data set [2], the IC50 is 1.6 nM.
For `CNC(=O)c1ccccc1Sc1ccc2c(C#Cc3ccc(NC(=O)NCCOCCOCCN)cc3)n[nH]c2c1` [Compound 43, 2-[(3-{[4-(3-{2-[2-(2-aminoethoxy)ethoxy]ethyl}ureido)phenyl]ethynyl}-1H-indazol-6-yl)thio]-N-methylbenzamide] the same measures were 32 µg/mL (≈ 55.9 µM) and 4 nM.
On to `CNC(=O)c1ccccc1Sc1ccc2c(C#Cc3cncc(NC(=O)NCCOCCOCCOCCOCCOC)c3)n[nH]c2c1` [Compound 31, 2-{[3-({5-[3-(2,5,8,11,14-pentaoxahexadecane-16-yl)ureido]pyridine-3-yl}ethynyl)-1H-indazol-6-yl]thio}-N-methylbenzamide], for which the solubility in data set [1] was 9.9 µg/mL (≈ 14.6 µM).
With `CNC(=O)c1ccccc1Sc1ccc2c(C#Cc3cccc(NC(=O)OCCOCCOCCOC)c3)n[nH]c2c1` [Compound 13, 2-[2-(2-methoxyethoxy)ethoxy]ethyl {3-[(6-{[2-(methylcarbamoyl)phenyl]thio}-1H-indazol-3-yl)ethynyl]phenyl}carbamate], in data set [2], the IC50 was 9.3 nM.
As for `CNC(=O)c1ccccc1Sc1ccc2c(C#Cc3cccc(NC(=O)NCCOCCOCCOCCOC)c3)n[nH]c2c1` [Compound 4], the solubility in data set [1] was determined as 0.31 µg/mL (≈ 0.491 µM).
In data set [1], `CNC(=O)c1ccccc1Sc1ccc2c(C#Cc3ccc(NC(=O)OCCOCCOCCOCCOC)cc3)n[nH]c2c1` [Compound 17, 2,5,8,11-tetraoxatridecane-13-yl {4-[(6-{[2-(methylcarbamoyl)phenyl]thio}-1H-indazol-3-yl)ethynyl]phenyl}carbamate] registered a solubility of 0.38 µg/mL (≈ 0.601 µM).
With `CNC(=O)c1ccccc1Sc1ccc2c(C#Cc3cccc(NC(=O)NCCOCCOCCOC)c3)n[nH]c2c1` [Compound 3, 2-[(3-{[3-(3-{2-[2-(2-methoxyethoxy)ethoxy]ethyl}ureido)phenyl]ethynyl}-1H-indazol-6-yl)thio]-N-methylbenzamide], the IC50 in data set [2] stood at 11 nM.
Take `CNC(=O)c1ccccc1Sc1ccc2c(C#Cc3ccc(NC(=O)NCCOCCOCCOC)nc3)n[nH]c2c1` [Compound 32, 2-[(3-{[6-(3-{2-[2-(2-methoxyethoxy)ethoxy]ethyl}ureido)pyridine-3-yl]ethynyl}-1H-indazol-6-yl)thio]-N-methylbenzamide]: the IC50 in data set [2] was 3.8 nM.
Regarding `CNC(=O)c1ccccc1Sc1ccc2c(C#Cc3cncc(NC(=O)NCCOCCOCCOC)c3)n[nH]c2c1` [Compound 30, 2-[(3-{[5-(3-{2-[2-(2-methoxyethoxy)ethoxy]ethyl}ureido)pyridine-3-yl]ethynyl}-1H-indazol-6-yl)thio]-N-methylbenzamide], the solubility in data set [1] was 0.58 µg/mL (≈ 0.985 µM).
Same read-out and setting: the value for `CNC(=O)c1ccccc1Sc1ccc2c(C#Cc3ccc(NC(=O)NCCOCCOCCOCCOC)cn3)n[nH]c2c1` [Compound 36, 2-{[3-({5-[3-(2,5,8,11-tetraoxatridecane-13-yl)ureido]pyridine-2-yl}ethynyl)-1H-indazol-6-yl]thio}-N-methylbenzamide] was 16 µg/mL (≈ 25.3 µM).
As to `CNC(=O)c1ccccc1Sc1ccc2c(C#Cc3cccc(NCCOCCOCCOC)c3)n[nH]c2c1` [Compound 25, 2-[(3-{[3-({2-[2-(2-methoxyethoxy)ethoxy]ethyl}amino)phenyl]ethynyl}-1H-indazol-6-yl)thio]-N-methylbenzamide], in data set [2], the IC50 was found to be 10 nM.
`CNC(=O)c1ccccc1Sc1ccc2c(C#Cc3ccc(NC(=O)NCCOCCOCCNC(C)=O)cc3)n[nH]c2c1` [Compound 45, 2-[(3-{[4-(3-{2-[2-(2-acetamideethoxy)ethoxy]ethyl}ureido)phenyl]ethynyl}-1H-indazol-6-yl)thio]-N-methylbenzamide] displayed a solubility in data set [1] of 0.56 µg/mL (≈ 0.911 µM). In addition, the IC50 in data set [2] was found to be 2.5 nM.
Take `CNC(=O)c1ccccc1Sc1ccc2c(C#Cc3ccc(NC(=O)NCCOCCOCCOCCOCCOC)cn3)n[nH]c2c1` [Compound 37, 2-{[3-({5-[3-(2,5,8,11,14-pentaoxahexadecane-16-yl)ureido]pyridine-2-yl}ethynyl)-1H-indazol-6-yl]thio}-N-methylbenzamide]: the solubility in data set [1] stood at 29 µg/mL (≈ 42.8 µM).
As to `CNC(=O)c1ccccc1Sc1ccc2c(C#Cc3ccc(NC(=O)OCCOCCOCCOC)cc3)n[nH]c2c1` [Compound 16, 2-[2-(2-methoxyethoxy)ethoxy]ethyl {4-[(6-{[2-(methylcarbamoyl)phenyl]thio}-1H-indazol-3-yl)ethynyl]phenyl}carbamate], the solubility in data set [1] turned out to be 0.27 µg/mL (≈ 0.459 µM). The IC50 in data set [2] was 1.2 nM.
Molecule `CNC(=O)c1ccccc1Sc1ccc2c(C#Cc3ccc(NCCOCCOCCOCCOC)cc3)n[nH]c2c1` [Compound 28, 2-{[3-({4-[(2,5,8,11-tetraoxatridecane-13-yl)amino]phenyl}ethynyl)-1H-indazol-6-yl]thio}-N-methylbenzamide] displayed a solubility in data set [1] of 0.17 µg/mL (≈ 0.289 µM).
In the case of `CNC(=O)c1ccccc1Sc1ccc2c(C#Cc3ccc(NC(=O)COCCOCCOCCOC)cc3)n[nH]c2c1` [Compound 20, N-{4-[(6-{[2-(methylcarbamoyl)phenyl]thio}-1H-indazol-3-yl)ethynyl]phenyl}-2,5,8,11-tetraoxatridecane-13-amide], the IC50 in data set [2] turned out to be 1.7 nM.
With `CNC(=O)c1ccccc1Sc1ccc2c(C#Cc3ccc(NC(=O)NCCOCCOCCOC)cn3)n[nH]c2c1` [Compound 35, 2-[(3-{[5-(3-{2-[2-(2-methoxyethoxy)ethoxy]ethyl}ureido)pyridine-2-yl]ethynyl}-1H-indazol-6-yl)thio]-N-methylbenzamide], in data set [1], the solubility was 4.4 µg/mL (≈ 7.47 µM). Moreover, the IC50 in data set [2] turned out to be 3.2 nM.
As for `CNC(=O)c1ccccc1Sc1ccc2c(C#Cc3ccc(NC(=O)COCCOCCOCCOCCOCCOC)cc3)n[nH]c2c1` [Compound 22, N-{4-[(6-{[2-(methylcarbamoyl)phenyl]thio}-1H-indazol-3-yl)ethynyl]phenyl}-2,5,8,11,14,17-hexaoxanonadecane-19-amide], in data set [1], the solubility came to 3.3 µg/mL (≈ 4.78 µM).
The same measure, in the same setting: the value for `CNC(=O)c1ccccc1Sc1ccc2c(C#Cc3cccc(NC(=O)NCCOCCOCCOCCOCCOC)c3)n[nH]c2c1` [Compound 5, 2-{[3-({3-[3-(2,5,8,11,14-pentaoxahexadecane-16-yl)ureido]phenyl}ethynyl)-1H-indazol-6-yl]thio}-N-methylbenzamide] was 0.99 µg/mL (≈ 1.46 µM); that for `CNC(=O)c1ccccc1Sc1ccc2c(C#Cc3ccc(NC(=O)NCCOCCOCCOCCOCCOC)cc3)n[nH]c2c1` [Compound 10, 2-{[3-({4-[3-(2,5,8,11,14-pentaoxahexadecane-16-yl)ureido]phenyl}ethynyl)-1H-indazol-6-yl]thio}-N-methylbenzamide] was 2.5 µg/mL (≈ 3.7 µM).
On the same count and under the same terms, for `CNC(=O)c1ccccc1Sc1ccc2c(C#Cc3ccc(NC(=O)COCCOCCOCCOC)cn3)n[nH]c2c1` [Compound 41] the value was 0.52 µg/mL (≈ 0.861 µM); for `CNC(=O)c1ccccc1Sc1ccc2c(C#Cc3ccc(NC(=O)NCCOCCOCCOCCOC)cc3)n[nH]c2c1` [Compound 9, 2-{[3-({4-[3-(2,5,8,11-tetraoxatridecane-13-yl)ureido]phenyl}ethynyl)-1H-indazol-6-yl]thio}-N-methylbenzamide], 1.2 µg/mL (≈ 1.9 µM).
Turning to `CNC(=O)c1ccccc1Sc1ccc2c(C#Cc3ccc(NC(=O)NCCOCCOCCN(C)C)cc3)n[nH]c2c1` [Compound 44, 2-{[3-({4-[3-(2-{2-[2-(dimethylamino)ethoxy]ethoxy}ethyl)ureido]phenyl}ethynyl)-1H-indazol-6-yl]thio}-N-methylbenzamide], the solubility in data set [1] came out at 7.6 µg/mL (≈ 12.7 µM). The IC50 in data set [2] came to 3 nM.
`CNC(=O)c1ccccc1Sc1ccc2c(C#Cc3ccc(NC(=O)OCCOCCOCCOCCOCCOC)cc3)n[nH]c2c1` [Compound 18, 2,5,8,11,14-pentaoxahexadecane-16-yl {4-[(6-{[2-(methylcarbamoyl)phenyl]thio}-1H-indazol-3-yl)ethynyl]phenyl}carbamate] gave a solubility in data set [1] of 0.86 µg/mL (≈ 1.27 µM).
In data set [1], `CNC(=O)c1ccccc1Sc1ccc2c(C#Cc3ccc(NCCOCCOCCOCCOCCOC)cc3)n[nH]c2c1` [Compound 29, 2-{[3-({4-[(2,5,8,11,14-pentaoxahexadecane-16-yl)amino]phenyl}ethynyl)-1H-indazol-6-yl]thio}-N-methylbenzamide] registered a solubility of 0.89 µg/mL (≈ 1.41 µM).

(Values after US9617222B1, “Alkynyl indazole derivative and use thereof” (SENJU PHARMACEUTICAL CO., LTD., priority 2014, dated 2017).)
